# Test results reported in PubChem BioAssay (NCI).
#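 The compound was tested at five concentrations on cells cultured in 96-well plates, with a 48-hour exposure period. GI50: concentration for 50% inhibition of growth. At the TGI there is no net growth.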
# Experiments:
# Assay in all cases: NCI-60 cell line screen, 48 h
# OVCAR-3 ovarian = test system: OVCAR-3 ovarian
# TK-10 renal = test system: TK-10 renal
# SF-539 CNS = test system: SF-539 CNS
# RXF 393 renal = test system: RXF 393 renal
# COLO 205 colon = test system: COLO 205 colon
# HCT-15 colon = test system: HCT-15 colon
# U251 CNS = test system: U251 CNS
# SNB-19 CNS = test system: SNB-19 CNS
# BT-549 breast = test system: BT-549 breast
# NCI-H23 lung = test system: NCI-H23 lung
# SF-268 CNS = test system: SF-268 CNS
# HT29 colon = test system: HT29 colon
# HS 578T breast = test system: HS 578T breast
# CCRF-CEM leukemia = test system: CCRF-CEM leukemia
# M14 melanoma = test system: M14 melanoma
# SN12C renal = test system: SN12C renal
# MOLT-4 leukemia = test system: MOLT-4 leukemia
# NCI-H460 lung = test system: NCI-H460 lung
# IGROV1 ovarian = test system: IGROV1 ovarian
# NCI-H522 lung = test system: NCI-H522 lung
# MDA-MB-435 = test system: MDA-MB-435
# NCI/ADR-RES ovarian = test system: NCI/ADR-RES ovarian
# SNB-75 CNS = test system: SNB-75 CNS
# SF-295 CNS = test system: SF-295 CNS
# SK-MEL-28 melanoma = test system: SK-MEL-28 melanoma
# OVCAR-5 ovarian = test system: OVCAR-5 ovarian
# MDA-MB-231 breast = test system: MDA-MB-231 breast
# K-562 leukemia = test system: K-562 leukemia
# 786-0 renal = test system: 786-0 renal
# SK-MEL-5 melanoma = test system: SK-MEL-5 melanoma
# RPMI-8226 leukemia = test system: RPMI-8226 leukemia
# CAKI-1 renal = test system: CAKI-1 renal
# UACC-257 melanoma = test system: UACC-257 melanoma
# SR leukemia = test system: SR leukemia
# KM12 colon = test system: KM12 colon
# A498 renal = test system: A498 renal
# EKVX NSCLC = test system: EKVX NSCLC
# UO-31 renal = test system: UO-31 renal
# A549 NSCLC = test system: A549 NSCLC
# SK-MEL-2 melanoma = test system: SK-MEL-2 melanoma
# OVCAR-4 ovarian = test system: OVCAR-4 ovarian
# ACHN renal = test system: ACHN renal
# HCT-116 colon = test system: HCT-116 colon
# LOX IMVI melanoma = test system: LOX IMVI melanoma
# NCI-H226 lung = test system: NCI-H226 lung
# HCC-2998 colon = test system: HCC-2998 colon
# T-47D breast = test system: T-47D breast
# SK-OV-3 ovarian = test system: SK-OV-3 ovarian
# OVCAR-8 ovarian = test system: OVCAR-8 ovarian
# SW-620 colon = test system: SW-620 colon
# DU-145 prostate = test system: DU-145 prostate
# HOP-62 NSCLC = test system: HOP-62 NSCLC
# MCF7 breast = test system: MCF7 breast
# PC-3 prostate = test system: PC-3 prostate
# UACC-62 melanoma = test system: UACC-62 melanoma
# MALME-3M melanoma = test system: MALME-3M melanoma
compound,measurement,setting,value
CCCCCCCCCCCC[n+]1ccc(C(N)=O)cc1,GI50,OVCAR-3 ovarian,2.28 µM
same,TGI,OVCAR-3 ovarian,8.72 µM
same,GI50,TK-10 renal,1.73 µM
same,TGI,TK-10 renal,4.26 µM
same,GI50,SF-539 CNS,2.36 µM
same,TGI,SF-539 CNS,6.31 µM
same,GI50,RXF 393 renal,1.74 µM
same,TGI,RXF 393 renal,5.46 µM
same,GI50,COLO 205 colon,1.55 µM
same,TGI,COLO 205 colon,2.98 µM
same,GI50,HCT-15 colon,12.7 µM
same,TGI,HCT-15 colon,43.6 µM
same,GI50,U251 CNS,1.14 µM
same,TGI,U251 CNS,3.55 µM
same,GI50,SNB-19 CNS,1.82 µM
same,TGI,SNB-19 CNS,4.34 µM
same,GI50,BT-549 breast,1.93 µM
same,TGI,BT-549 breast,4.7 µM
same,GI50,NCI-H23 lung,2.81 µM
same,TGI,NCI-H23 lung,14 µM
same,GI50,SF-268 CNS,2.78 µM
same,TGI,SF-268 CNS,11.5 µM
same,GI50,HT29 colon,2.18 µM
same,TGI,HT29 colon,13.1 µM
same,GI50,HS 578T breast,2.55 µM
same,TGI,HS 578T breast,8.49 µM
same,GI50,CCRF-CEM leukemia,3.61 µM
same,TGI,CCRF-CEM leukemia,> 100 µM
same,GI50,M14 melanoma,2.58 µM
same,TGI,M14 melanoma,9.7 µM
same,GI50,SN12C renal,3.61 µM
same,TGI,SN12C renal,12.6 µM
same,GI50,MOLT-4 leukemia,3.29 µM
same,TGI,MOLT-4 leukemia,> 100 µM
same,GI50,NCI-H460 lung,3.81 µM
same,TGI,NCI-H460 lung,14.1 µM
same,GI50,IGROV1 ovarian,1.4 µM
same,TGI,IGROV1 ovarian,3.5 µM
same,GI50,NCI-H522 lung,2.33 µM
same,TGI,NCI-H522 lung,8.38 µM
same,GI50,MDA-MB-435,3.17 µM
same,TGI,MDA-MB-435,14.9 µM
same,GI50,NCI/ADR-RES ovarian,> 100 µM
same,TGI,NCI/ADR-RES ovarian,> 100 µM
same,GI50,SNB-75 CNS,2.08 µM
same,TGI,SNB-75 CNS,6.61 µM
same,GI50,SF-295 CNS,2.8 µM
same,TGI,SF-295 CNS,11.6 µM
same,GI50,SK-MEL-28 melanoma,4.33 µM
same,TGI,SK-MEL-28 melanoma,15 µM
same,GI50,OVCAR-5 ovarian,1.47 µM
same,TGI,OVCAR-5 ovarian,4.56 µM
same,GI50,MDA-MB-231 breast,2.91 µM
same,TGI,MDA-MB-231 breast,10.9 µM
same,GI50,K-562 leukemia,2.87 µM
same,TGI,K-562 leukemia,> 100 µM
same,GI50,786-0 renal,3.33 µM
same,TGI,786-0 renal,12.7 µM
same,GI50,SK-MEL-5 melanoma,1.63 µM
same,TGI,SK-MEL-5 melanoma,3.05 µM
same,GI50,RPMI-8226 leukemia,1.34 µM
same,TGI,RPMI-8226 leukemia,4.86 µM
same,GI50,CAKI-1 renal,10.7 µM
same,TGI,CAKI-1 renal,26.2 µM
same,GI50,UACC-257 melanoma,4.24 µM
same,TGI,UACC-257 melanoma,17.8 µM
same,GI50,SR leukemia,4.67 µM
same,TGI,SR leukemia,> 100 µM
same,GI50,KM12 colon,1.43 µM
same,TGI,KM12 colon,3 µM
same,GI50,A498 renal,4.85 µM
same,TGI,A498 renal,19.5 µM
same,GI50,EKVX NSCLC,2.55 µM
same,TGI,EKVX NSCLC,12.8 µM
same,GI50,UO-31 renal,9.08 µM
same,TGI,UO-31 renal,24.7 µM
same,GI50,A549 NSCLC,10.1 µM
same,TGI,A549 NSCLC,26.2 µM
same,GI50,SK-MEL-2 melanoma,3.51 µM
same,TGI,SK-MEL-2 melanoma,9.13 µM
same,GI50,OVCAR-4 ovarian,4.73 µM
same,TGI,OVCAR-4 ovarian,17.5 µM
same,GI50,ACHN renal,6.06 µM
same,TGI,ACHN renal,22 µM
same,GI50,HCT-116 colon,4.58 µM
same,TGI,HCT-116 colon,20.5 µM
same,GI50,LOX IMVI melanoma,2.4 µM
same,TGI,LOX IMVI melanoma,13.2 µM
same,GI50,NCI-H226 lung,3.43 µM
same,TGI,NCI-H226 lung,16.3 µM
same,GI50,HCC-2998 colon,2.71 µM
same,TGI,HCC-2998 colon,10.9 µM
same,GI50,T-47D breast,3.06 µM
same,TGI,T-47D breast,11.8 µM
same,GI50,SK-OV-3 ovarian,4.18 µM
same,TGI,SK-OV-3 ovarian,15.2 µM
same,GI50,OVCAR-8 ovarian,3.34 µM
same,TGI,OVCAR-8 ovarian,13.1 µM
same,GI50,SW-620 colon,3.16 µM
same,TGI,SW-620 colon,14.4 µM
same,GI50,DU-145 prostate,4.6 µM
same,TGI,DU-145 prostate,17.2 µM
same,GI50,HOP-62 NSCLC,2.84 µM
same,TGI,HOP-62 NSCLC,10.2 µM
same,GI50,MCF7 breast,3.7 µM
same,TGI,MCF7 breast,15.4 µM
same,GI50,PC-3 prostate,0.71 µM
same,TGI,PC-3 prostate,3.55 µM
same,GI50,UACC-62 melanoma,2.74 µM
same,TGI,UACC-62 melanoma,11.6 µM
same,GI50,MALME-3M melanoma,2.59 µM
same,TGI,MALME-3M melanoma,8.81 µM
